Test results: patent US20210085640A1, “ACYLATED CATECHIN POLYPHENOLS AND METHODS OF THEIR USE FOR THE TREATMENT OF CANCER” (Flagship Pioneering Innovations V, Inc., priority 2018, published 2021)

Tests used:
[1] = Stability in Simulated Gastric Fluid (SGF); type: in vitro ADME; conditions: SGF pH 1.6 with pepsin, 1 μM, 37° C.
Protocol: Stability of acylated active agents in Simulated Gastric Fluid (SGF). This assay was used to assess the stability of an acylated active agent in a stomach.
Medium was prepared by dissolving 2 g of sodium chloride in 0.6 L in ultrapure water (MilliQ®, Millipore Sigma, Darmstadt, Germany). The pH was adjusted to 1.6 with 1N hydrochloric acid, and the volume was then adjusted to 1 L with purified water.
60 mg FaSSIF powder (Biorelevant™, London, UK) were dissolved in 500 mL buffer (above). Pepsin was added (0.1 mg/mL) (Millipore Sigma, Darmstadt, Germany), and the solution was stirred. The resulting SGF media were used fresh for each experiment.
Test compounds were dissolved in DMSO stock to 1 mM. An aliquot of the DMSO stock solution was removed and diluted in the SGF Media in 15 mL falcon tubes to generate a total compound concentration of 1 μM. A 1 mL aliquot was immediately removed and diluted once with 1 volume of acetonitrile for T0 timepoint. The mixture was sealed and mixed at 37° C. in an incubator. Aliquots (1 mL) were removed at regular intervals and immediately quenched by the addition of 1 volume of acetonitrile. The resulting samples were analyzed by LC/MS to determine degradation rates

T24 bladder cancer cells = experiment: Cancer cell survival (CellTiter-Glo), T24; type: cell-based; conditions: 72 h
Method in brief: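 Viability by CellTiter-Glo after 72 h compound treatment of T24 bladder cancer cells (4×10^3/well, plated the night before), nine concentration levels in triplicate. Percent survival normalised to untreated cells minus medium background, from which IC50 was determined.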

[2] = test system: Daudi lymphoma cancer cells; experiment: Cancer cell survival (CellTiter-Glo), Daudi; type: cell-based; conditions: 72 h
Method in brief: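 Daudi cells (4×10^3/well) were exposed for 72 h at 37 °C to nine concentrations of compound, added as 10× solutions spanning 1 μM–10 mM (fatty acids) or 100 nM–1 mM (others). CellTiter-Glo luminescence gave % survival versus untreated, medium-blank corrected; IC50 derived.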

MCF7 breast cancer cells = experiment: Cancer cell survival (CellTiter-Glo), MCF7; type: cell-based; conditions: 72 h
Method in brief: (§1)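 CellTiter-Glo luminescence after 72 h compound exposure (37 C, 5% CO2; nine concentration levels, triplicate) of overnight-plated cells at 4×10^3 per well. IC50 calculated from survival % relative to untreated cells after medium-background subtraction.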

[3] = test system: HCT 116 colorectal cancer cells; experiment: Cancer cell survival (CellTiter-Glo), HCT 116; type: cell-based; conditions: HCT 116 cells, 72 h
Method in brief: as §1

A549 lung cancer cells = experiment: Cancer cell survival (CellTiter-Glo), A549; type: cell-based; conditions: 72 h
Method in brief: as §1

[4] = test system: PC-3 prostate cancer cells; experiment: Cancer cell survival (CellTiter-Glo), PC-3; type: cell-based; conditions: PC-3 cells, 72 h
Method in brief: as §1

A-431 skin cancer cells = experiment: Cancer cell survival (CellTiter-Glo), A-431; type: cell-based; parameters: Cell survival at given concentration: unit not given here; conditions: A-431 cells, 72 h
Method in brief: as §1

AGS stomach cancer cells = experiment: Cancer cell survival (CellTiter-Glo), AGS; type: cell-based; parameters: Cell survival at given concentration: unit not given here
Method in brief: as §1

Question: For CC(=O)Oc1ccc(-c2oc3cc(OC(C)=O)cc(OC(C)=O)c3c(=O)c2OC(C)=O)cc1 [Compound 8, [4-(3,5,7-triacetoxy-4-oxo-chromen-2-yl)phenyl] acetate], which “Assay 1 (SGF) (% Remaining @ 1 hours)” value [1] is on record?
Answer: C (>75% of the tested compound remaining)

Question: With CC(=O)Oc1cc(OC(C)=O)c2c(=O)c(OC(C)=O)c(-c3cc(OC(C)=O)c(OC(C)=O)c(OC(C)=O)c3)oc2c1 [Compound 11, [3,5-diacetoxy-4-oxo-2-(3,4,5-triacetoxyphenyl)chromen-7-yl] acetate] as the compound, how does the “Assay 1 (SGF) (% Remaining @ 1 hours)” value [1] read?
Answer: C (>75% of the tested compound remaining)

Question: Which “Assay 1 (SGF) (% Remaining @ 1 hours)” value [1] does the source give for CCC(=O)Oc1cc(OC(=O)CC)c2c(c1)O[C@H](c1cc(OC(=O)CC)c(OC(=O)CC)c(OC(=O)CC)c1)[C@H](OC(=O)c1cc(OC(=O)CC)c(OC(=O)CC)c(OC(=O)CC)c1)C2 [Compound 15, [(2R,3R)-5,7-di(propanoyloxy)-2-[3,4,5-tri(propanoyloxy)phenyl]chroman-3-yl] 3,4,5-tri(propanoyloxy)benzoate] here?
Answer: C (>75% of the tested compound remaining)

Question: Which “Assay 1 (SGF) (% Remaining @ 1 hours)” value [1] does the source give for CCCC(=O)O[C@H](C)CCOC(=O)C[C@@H](C)OC(=O)CCC [Compound 23, (R)-3-(butyryloxy)butyl (R)-3-(butyryloxy)butanoate] here?
Answer: C (>75% of the tested compound remaining)

Question: With CCCCC(=O)O [valerate] as the compound, how does the “Cell survival at given concentration” value (T24 bladder cancer cells; 1 μM, Table 3.2) read?
Answer: 1.00

Question: And the “Cell survival at given concentration” value (T24 bladder cancer cells; 3 μM, Table 3.2)?
Answer: 1.01

Question: And the “Cell survival at given concentration” value (T24 bladder cancer cells; 10 μM, Table 3.2)?
Answer: 1.01

Question: What about the “Cell survival at given concentration” value (T24 bladder cancer cells; 32 μM, Table 3.2) of the same compound?
Answer: 0.98

Question: And the “Cell survival at given concentration” value (T24 bladder cancer cells; 100 μM, Table 3.2)?
Answer: 0.98

Question: What about the “Cell survival at given concentration” value (T24 bladder cancer cells; 317 μM) of the same compound?
Answer: 0.92

Question: What about the “Cell survival at given concentration” value (T24 bladder cancer cells; 1 mM) of the same compound?
Answer: 0.89

Question: What about the “Cell survival at given concentration” value (T24 bladder cancer cells; 3 mM) of the same compound?
Answer: 0.79

Question: What about the “Cell survival at given concentration” value (T24 bladder cancer cells; 10 mM) of the same compound?
Answer: 0.60

Question: What about the IC50 (T24 bladder cancer cells; Table 3.2, read-out: IC50) of the same compound?
Answer: > 10 mM

Question: And the “Cell survival at given concentration” value ([2]; 1 μM, Table 4.2)?
Answer: 0.99

Question: What about the “Cell survival at given concentration” value ([2]; 3 μM, Table 4.2) of the same compound?
Answer: 0.98

Question: And the “Cell survival at given concentration” value ([2]; 10 μM, Table 4.2)?
Answer: 0.98

Question: What about the “Cell survival at given concentration” value ([2]; 32 μM, Table 4.2) of the same compound?
Answer: 1.01

Question: What about the “Cell survival at given concentration” value ([2]; 100 μM, Table 4.2) of the same compound?
Answer: 0.95

Question: What about the “Cell survival at given concentration” value ([2]; 317 μM) of the same compound?
Answer: 0.91

Question: And the “Cell survival at given concentration” value ([2]; 1 mM)?
Answer: 0.76

Question: And the “Cell survival at given concentration” value ([2]; 3 mM)?
Answer: 0.39

Question: What about the “Cell survival at given concentration” value ([2]; 10 mM) of the same compound?
Answer: 0.12

Question: And the IC50 ([2]; Table 4.2)?
Answer: 2.3 mM

Question: And the “Cell survival at given concentration” value (MCF7 breast cancer cells; 1 μM, Table 5.2)?
Answer: 1.00

Question: What about the “Cell survival at given concentration” value (MCF7 breast cancer cells; 3 μM, Table 5.2) of the same compound?
Answer: 1.02

Question: And the “Cell survival at given concentration” value (MCF7 breast cancer cells; 10 μM, Table 5.2)?
Answer: 1.01

Question: What about the “Cell survival at given concentration” value (MCF7 breast cancer cells; 32 μM, Table 5.2) of the same compound?
Answer: 0.97

Question: And the “Cell survival at given concentration” value (MCF7 breast cancer cells; 100 μM, Table 5.2)?
Answer: 1.00

Question: What about the “Cell survival at given concentration” value (MCF7 breast cancer cells; 317 μM) of the same compound?
Answer: 0.96

Question: And the “Cell survival at given concentration” value (MCF7 breast cancer cells; 1 mM)?
Answer: 0.94

Question: And the “Cell survival at given concentration” value (MCF7 breast cancer cells; 3 mM)?
Answer: 0.76

Question: What about the “Cell survival at given concentration” value (MCF7 breast cancer cells; 10 mM) of the same compound?
Answer: 0.50

Question: And the IC50 (MCF7 breast cancer cells; Table 5.2)?
Answer: > 10 mM

Question: What about the “Cell survival at given concentration” value ([3]; 1 μM, Table 6.2) of the same compound?
Answer: 0.99

Question: And the “Cell survival at given concentration” value ([3]; 3 μM, Table 6.2)?
Answer: 0.99

Question: And the “Cell survival at given concentration” value ([3]; 10 μM, Table 6.2)?
Answer: 1.04

Question: What about the “Cell survival at given concentration” value ([3]; 32 μM, Table 6.2) of the same compound?
Answer: 1.00

Question: And the “Cell survival at given concentration” value ([3]; 100 μM, Table 6.2)?
Answer: 1.01

Question: What about the “Cell survival at given concentration” value ([3]; 317 μM) of the same compound?
Answer: 0.99

Question: What about the “Cell survival at given concentration” value ([3]; 1 mM) of the same compound?
Answer: 0.90

Question: And the “Cell survival at given concentration” value ([3]; 3 mM)?
Answer: 0.60

Question: What about the “Cell survival at given concentration” value ([3]; 10 mM) of the same compound?
Answer: 0.17

Question: What about the IC50 ([3]; Table 6.2) of the same compound?
Answer: 4.07 mM

Question: What about the “Cell survival at given concentration” value (A549 lung cancer cells; 1 μM, Table 7.2) of the same compound?
Answer: 0.98

Question: And the “Cell survival at given concentration” value (A549 lung cancer cells; 3 μM, Table 7.2)?
Answer: 1.00

Question: And the “Cell survival at given concentration” value (A549 lung cancer cells; 10 μM, Table 7.2)?
Answer: 1.01

Question: What about the “Cell survival at given concentration” value (A549 lung cancer cells; 32 μM, Table 7.2) of the same compound?
Answer: 0.97

Question: What about the “Cell survival at given concentration” value (A549 lung cancer cells; 100 μM, Table 7.2) of the same compound?
Answer: 1.04

Question: And the “Cell survival at given concentration” value (A549 lung cancer cells; 317 μM)?
Answer: 1.02

Question: And the “Cell survival at given concentration” value (A549 lung cancer cells; 1 mM)?
Answer: 0.98

Question: What about the “Cell survival at given concentration” value (A549 lung cancer cells; 3 mM) of the same compound?
Answer: 0.87

Question: What about the “Cell survival at given concentration” value (A549 lung cancer cells; 10 mM) of the same compound?
Answer: 0.62

Question: What about the IC50 (A549 lung cancer cells; Table 7.2) of the same compound?
Answer: > 10 mM

Question: And the “Cell survival at given concentration” value ([4]; 1 μM, Table 8.2)?
Answer: 1.00

Question: And the “Cell survival at given concentration” value ([4]; 3 μM, Table 8.2)?
Answer: 0.99

Question: And the “Cell survival at given concentration” value ([4]; 10 μM, Table 8.2)?
Answer: 1.02

Question: What about the “Cell survival at given concentration” value ([4]; 32 μM, Table 8.2) of the same compound?
Answer: 1.01

Question: And the “Cell survival at given concentration” value ([4]; 100 μM, Table 8.2)?
Answer: 1.04

Question: And the “Cell survival at given concentration” value ([4]; 317 μM)?
Answer: 0.97

Question: What about the “Cell survival at given concentration” value ([4]; 1 mM) of the same compound?
Answer: 0.94

Question: And the “Cell survival at given concentration” value ([4]; 3 mM)?
Answer: 0.84

Question: What about the “Cell survival at given concentration” value ([4]; 10 mM) of the same compound?
Answer: 0.69

Question: And the IC50 ([4]; Table 8.2)?
Answer: > 10 mM

Question: And the “Cell survival at given concentration” value (A-431 skin cancer cells; 1 μM, Table 9.2)?
Answer: 1.01

Question: And the “Cell survival at given concentration” value (A-431 skin cancer cells; 3 μM, Table 9.2)?
Answer: 1.01

Question: What about the “Cell survival at given concentration” value (A-431 skin cancer cells; 10 μM, Table 9.2) of the same compound?
Answer: 1.02

Question: And the “Cell survival at given concentration” value (A-431 skin cancer cells; 32 μM, Table 9.2)?
Answer: 1.02

Question: And the “Cell survival at given concentration” value (A-431 skin cancer cells; 100 μM, Table 9.2)?
Answer: 1.02

Question: And the “Cell survival at given concentration” value (A-431 skin cancer cells; 317 μM)?
Answer: 1.03

Question: And the “Cell survival at given concentration” value (A-431 skin cancer cells; 1 mM)?
Answer: 0.98

Question: What about the “Cell survival at given concentration” value (A-431 skin cancer cells; 3 mM) of the same compound?
Answer: 0.89

Question: And the “Cell survival at given concentration” value (A-431 skin cancer cells; 10 mM)?
Answer: 0.71

Question: And the “Cell survival at given concentration” value (AGS stomach cancer cells; 1 μM, Table 10.2)?
Answer: 1.03

Question: What about the “Cell survival at given concentration” value (AGS stomach cancer cells; 3 μM, Table 10.2) of the same compound?
Answer: 1.03

Question: What about the “Cell survival at given concentration” value (AGS stomach cancer cells; 10 μM, Table 10.2) of the same compound?
Answer: 1.04

Question: What about the “Cell survival at given concentration” value (AGS stomach cancer cells; 32 μM, Table 10.2) of the same compound?
Answer: 1.03

Question: And the “Cell survival at given concentration” value (AGS stomach cancer cells; 100 μM, Table 10.2)?
Answer: 1.05

Question: What about the “Cell survival at given concentration” value (AGS stomach cancer cells; 317 μM) of the same compound?
Answer: 1.06

Question: What about the “Cell survival at given concentration” value (AGS stomach cancer cells; 1 mM) of the same compound?
Answer: 1.06

Question: What about the “Cell survival at given concentration” value (AGS stomach cancer cells; 3 mM) of the same compound?
Answer: 0.97

Question: What about the “Cell survival at given concentration” value (AGS stomach cancer cells; 10 mM) of the same compound?
Answer: 0.63
